Data on five compounds can be found in US20050202010A1, “Method of treatment and bioassay involving macrophage migration inhibitory factor (MIF) as cardiac-derived myocardial depressant factor” (priority 2003, published 2005).

For experiment [1], the system named is LPS stimulated monocytes. The conditions noted are these: cited from earlier work.
Experiment [2] deals with wild type mice challenged with LPS. Put plainly: Tissue MIF release (western, immunohistochemistry) after LPS challenge, Enbrel pre-treatment. It counts as in vivo, mouse. On the procedure:
Louis, Mo.) and sacrificed by CO2 asphyxiation and subsequent cervical dislocation. Uninjected mice were used as controls. The two anti-MIF antibodies (III.D.9 and XIV.15.5, gift of Cytokine PharmaSciences, Inc., King of Prussia, Pa.) and their isotype control (HB-49, gift from Cytokine PharmaSciences, Inc.) were injected (100 μg in […]) intraperitoneally 90 minutes before the LPS challenge in the echocardiogram studies. […]
Protein Extraction and Western Blotting. […] Protein concentration was quantified using the Bio-Rad Protein Assay (Hercules, Calif.) and 50 μg of protein diluted in Laemmeli sample buffer (Bio-Rad) was added in a 1:1 ratio to a final volume of 10 μl and resolved on a 12% SDS polyacrylamide gel under reducing conditions. Prestained SDS-PAGE standards (Kaleidoscope Broad range, Bio-Rad Laboratories, Inc., Hercules, Calif.) were run (10 μl/lane) with each gel in order to determine the approximate M.W. of detected bands. […] The membrane was then developed for 5 minutes with 5 ml of ECL reagents (SuperSignal West Pico, Pierce, Rockford, Ill.), and the resulting chemiluminescent reaction was detected by Kodak X-OMAT AR Film (Eastman Kodak Co., Rochester, N.Y.). […]

The test system is the same in experiment [3]. Put plainly: Serum MIF levels (ELISA) after LPS challenge, Enbrel pre-treatment. As to conditions: wild type mice pre-treated (60 minutes) with Enbrel, LPS 4 mg/kg. The experiment is classed as in vivo, mouse. On the procedure:
Mice were injected intraperitoneally with 4 mg/kg E. coli 0111:B4 LPS (Sigma-Aldrich Corp., St. Louis, Mo.) and sacrificed by CO2 asphyxiation and subsequent cervical dislocation. Uninjected mice were used as controls. The two anti-MIF antibodies (III.D.9 and XIV.15.5, gift of Cytokine PharmaSciences, Inc., King of Prussia, Pa.) and their isotype control (HB-49, gift from Cytokine PharmaSciences, Inc.) were injected (100 μg in […]) intraperitoneally 90 minutes before the LPS challenge in the echocardiogram studies. […]
Determination of serum MIF levels. Sera from six mice were assayed for mouse MIF using the Chemikine™ Rat/Mouse macrophage inhibitory factor (MIF) EIA kit (Chemicon International, Inc., Temecula, Calif.) according to the manufacturer's instructions. Briefly, 5 μl of standards, samples, or reaction buffer (blank) were added to each well in duplicate. Diluted MIF-HRP antibody conjugate was added to each well (100 μl) and allowed to incubate for 2 hours at room temperature. Wells were then washed five times, and TMB substrate (100 μl) was allowed to incubate in the dark for 30 minutes at room temperature. The stop reagent was added to each well, gently mixed, and the ELISA was read on an ELISA plate reader (EL 312e Microplate Reader, Bio-Tek Instruments, Winooski, Vt.) at 450 nm (630 nm background) within 30 minutes of completion of the assay. […]

For the compound `C[C@H]1CCC/C=C/[C@@H]2C[C@H](O)C[C@H]2[C@H](O)/C=C/C(=O)O1` [brefelding A], the “effect on MIF secretion” value in experiment [1] is “do not inhibit the secretion of MIF”. Take `COc1ccc(Cl)cc1C(=O)NCCc1ccc(S(=O)(=O)NC(=O)NC2CCCCC2)cc1` [glyburide]: the “effect on MIF secretion” value in experiment [1] is recorded as “MIF secretion did not occur”. With `CC[C@@]1([C@@H]2O[C@@H]([C@H]3O[C@@](O)(CO)[C@H](C)C[C@@H]3C)C[C@@H]2C)CC[C@H]([C@]2(C)CC[C@]3(C[C@H](O)[C@@H](C)[C@@H]([C@@H](C)[C@@H](OC)[C@H](C)C(=O)O)O3)O2)O1` [monensin], the “effect on MIF secretion” value in experiment [1] is recorded as “do not inhibit the secretion of MIF”. Regarding Enbrel®, the “tissue release of MIF after LPS challenge” value in experiment [2] (Enbrel given just immediately prior to or after LPS instead of 90 minutes prior (data not shown)) is reported as “occurred sporatically”. Further, the “release of MIF from cardiac, liver and spleen tissue after LPS challenge” value in experiment [2] (wild type mice pre-treated with Enbrel, western and immunohistochemistry) is reported as “did not occur at any time”. In experiment [3], the “Maximum serum MIF levels” value is reported as about 2.3 fold baseline and the “time of maximum serum MIF levels” value came to 24 h. With `CCCN(CCC)S(=O)(=O)c1ccc(C(=O)O)cc1` [probenicide], in experiment [1], the “effect on MIF secretion” value was “MIF secretion did not occur”.
